Laboratory results taken from article doi:10.1101/2023.08.21.552681v1 (biorxiv, 2023).
pKd: −log10 of the molar value.

What follows are molecules tested against T1, ctdWDR91 (Homo sapiens, UniProt A4D1P6) (assay: biochemical).
T1 sequence (A4D1P6 392-747): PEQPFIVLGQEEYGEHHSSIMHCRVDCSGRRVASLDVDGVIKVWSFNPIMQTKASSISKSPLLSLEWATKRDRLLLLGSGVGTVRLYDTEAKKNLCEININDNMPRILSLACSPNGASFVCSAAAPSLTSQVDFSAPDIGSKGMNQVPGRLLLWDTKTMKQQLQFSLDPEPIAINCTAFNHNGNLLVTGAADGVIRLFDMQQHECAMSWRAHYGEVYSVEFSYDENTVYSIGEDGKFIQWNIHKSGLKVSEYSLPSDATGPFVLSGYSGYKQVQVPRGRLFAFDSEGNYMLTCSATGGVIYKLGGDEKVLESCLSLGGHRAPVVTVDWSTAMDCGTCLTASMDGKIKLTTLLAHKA

SMILES	pKd
CN1C(=O)CC(C(=O)NCc2ccc(O)c(O)c2)C1c1ccc(Cl)c(Cl)c1 (stereo not shown) [MRGG045316a]	< 4.35
CN1CC(N(C)C(=O)CCc2ccc3cc(O)c(O)cc3c2)C1 [MRGG045336a]	< 4.35
N#Cc1cc(Br)cc(N2CCCC2)c1 [MRGG044812a]	< 4.35
CN(CCc1ccccc1F)C(=O)c1cnc2sccn12 [MRGG045268a]	< 4.35
COC(=O)c1cccc(-c2cccc(NC3CCN(C4CC4)C3)c2)c1 (stereo not shown) [MRGG045314a]	< 4.35
CN(CCc1ccccc1)C(=O)Cc1ccc(O)c(O)c1 [UBGG028860b]	< 4.35
CC(NC(=O)CN(C)Cc1ccc(Cl)c(Cl)c1)c1ccccc1 (stereo not shown) [MRGG044839a]	< 4.35
CCCC(NC(=O)c1cc(O)c(O)cc1C)C(=O)N(C)C (stereo not shown) [MRGG045321a]	< 4.35
CN(Cc1ccccc1-n1cccc1)C(=O)C1CCCN1C1CC1 (stereo not shown) [MRGG045309a]	< 4.35
c1ccc(CN2CCC3(CCN(C4CC4)C3)C2)cc1 (stereo not shown) [MRGG045337a]	< 4.35
O=C(Cc1cn2ccsc2n1)NC1(c2ccc(Cl)cc2)CC1 [MRGG044790a]	< 4.35
COc1cccc2c1OCCCN(C(=O)c1cn3ccsc3n1)C2 [MRGG044787a]	< 4.35
CC(NC(=O)CN(C)C1CCN(C2CC2)C1)c1ccc(Br)cc1 (stereo not shown) [MRGG045280a]	< 4.35
CC(C)(C)OC(=O)N1CCC2(CC(N)c3ccccc3O2)C1 (stereo not shown) [MRGG044817a]	< 4.35
CC(C)(C)OC(=O)N1C[C@@H](Cc2ccccc2)[C@H](O)C1 [MRGG044809a]	< 4.35
O=C(NC1(c2ccc(F)cc2)COC1)c1ccc2cnccc2c1 [MRGG045267a]	< 4.35

SMILES	pKd
CNC(=O)c1ccc(NC2CC3CCC(C2)N3C)nc1 (stereo not shown) [MRGG045318a]	< 4.35
N#Cc1ccc(NCc2cc(Cl)cc(C(F)(F)F)c2)cn1 [MRGG044806a]	< 4.35
COc1ccc(CC(=O)N(C)Cc2cccc(N3CCCC3)c2)cc1[N+](=O)[O-] [MRGG045329a]	< 4.35
Cc1cccc(C#CCN2C[C@@H]3C[C@H]2CN3C2CC2)c1 [MRGG045294a]	< 4.35
O=C(NCc1ccc2nonc2c1)c1cn2ccsc2n1 [MRGG044782a]	< 4.35
COc1cccc([C@@H]2[C@@H](NC3CCN(C4CC4)C3)CCN2C2CC2)c1 (stereo partly shown) [MRGG045319a]	< 4.35
CC(C)(C)OC(=O)NCc1ccc(C(=O)NC2CCN(c3ccc(Cl)cc3)C2)cc1 (stereo not shown) [MRGG045288a]	< 4.35
O=C(NCc1ccc2cnccc2c1)c1snc(O)c1Cl [MRGG045296a]	< 4.35
N#Cc1cccc(CNC(=O)C2=NN(c3ccccc3)C(=O)CN2)c1 [MRGG044820a]	< 4.35
Cc1cc2ccccc2n1CC(=O)Nc1cc(C(N)=O)ccc1N1CCCC1 [MRGG044789a]	< 4.35
CN(C1CCN(C2CC2)C1)S(=O)(=O)c1cccc2ccoc12 (stereo not shown) [MRGG045312a]	< 4.35
CN(CC1CCN(Cc2ccccc2)C1)C(=O)Cc1cccc(O)c1 (stereo not shown) [MRGG044819a]	< 4.35
NC(=O)[C@]12CCOC[C@H]1CN(C(=O)c1cccc(N3CCCC3)c1)C2 [MRGG044792a]	< 4.35
c1ccc2c(c1)OCCCC2NC1CCN(C2CC2)C1 (stereo not shown) [MRGG044835a]	< 4.35
O=C(NC1CCc2ccccc21)c1ccc(Cl)cc1 (stereo not shown) [MRGG044788a]	< 4.35
CC(NC(=O)C1Cc2ccccc2O1)c1cccc(N2CCCC2)c1 (stereo not shown) [MRGG044823a]	< 4.35

The next lines start with the values.

pKd	SMILES
< 4.35	Cc1cc(O)c(O)cc1C(=O)N[C@H]1CC(=O)N(C)[C@@H]1c1ccc(Cl)cc1 [MRGG045330a]
< 4.35	O=C(NC(CCO)c1ccc(Cl)c(Cl)c1)c1ccc2c(c1)NC(=O)C1CCCN21 (stereo not shown) [MRGG045335a]
< 4.35	CC1c2cccn2CCN1C(=O)c1cc(Br)cc(N2CCCC2)c1 (stereo not shown) [MRGG044826a]
< 4.35	O=C(NC(CO)c1ccc(Cl)cc1)c1cccc2cn[nH]c12 (stereo not shown) [MRGG044832a]
< 4.35	Cc1c(C(=O)NCc2n[nH]c(N)n2)n(C)c2ccc(F)cc12 [MRGG044784a]
< 4.35	c1nc(NC2CCN(C3CC3)C2)c2ccsc2n1 (stereo not shown) [MRGG044830a]
< 4.35	Cc1nc2sccn2c1C(=O)N(C)Cc1cccc(F)c1 [UBGG013392b]
< 4.35	CC1CN(C2CC2)CC1NS(=O)(=O)c1cnn(-c2ccccc2)c1 (stereo not shown) [MRGG044803a]
< 4.35	CN1C[C@@H]2CN(C(=O)c3cc(Br)c([N+](=O)[O-])[nH]3)C[C@@H]2C1 [MRGG045266a]
< 4.35	Cc1cc(N2CCC(COC(=O)C3COc4ccccc43)C2)ccc1F (stereo not shown) [MRGG045298a]
< 4.35	COc1cc(C)nc(NC(=O)c2ccoc2C2CC2)n1 [MRGG044772b]
< 4.35	CC1CN(C2CC2)CC1NCc1ccccc1-n1ccnc1 (stereo not shown) [MRGG044802a]
< 4.35	Cc1ccc(C(=O)N(C)C)cc1-c1cccc(N2CCCC2)c1 [MRGG045315a]
< 4.35	COc1ccc(C(NC(=O)CN2CCn3ncnc3C2)c2ccc(OC)cc2)cc1 [MRGG044794a]
< 4.35	O=C(NC1CCN(c2cccc(Cl)c2)C1)c1cccc2c1OCO2 (stereo not shown) [MRGG044807a]
< 4.35	COc1cccc(N2CCC(CNC(=O)c3cccc(F)c3)C2)c1 (stereo not shown) [MRGG044811a]
< 4.35	CC1CC(NCC2CCCCCC2)CN1C1CC1 (stereo not shown) [MRGG045339a]
< 4.35	O=C(Nc1cccc2cnccc12)c1cccc([N+](=O)[O-])c1 [MRGG044720b]
< 4.35	N#Cc1cc(C(F)(F)F)cc(N2CCCN(C3CC3)CC2)n1 [MRGG045289a]
< 4.35	COC(=O)c1ccccc1NC(=O)c1ccc2nnsc2c1 [MRGG044841a]
< 4.35	Cn1ccc(C(=O)Nc2ccc(N3CCCCC3)c3ccncc23)cc1=O [MRGG044838a]
< 4.35	CN(C(=O)c1c(C2CC2)nc2sccn12)C1CCN(C2CC2)C1 (stereo not shown) [MRGG045293a]
< 4.35	Cc1cc(NCC2CCN(C3CC3)C2)nc(-c2cccc([N+](=O)[O-])c2)n1 (stereo not shown) [MRGG044829a]
< 4.35	O=C(NC1CC2(CCCC2)Oc2ccccc21)c1cnc2ccccn2c1=O (stereo not shown) [MRGG044783a]

Target: T1, ctdWDR91
Test: biochemical
Remark: another data set of the same source

SMILES	pKd
O=C(NC1(c2ccc(Cl)cc2)COC1)c1ccc(OCC2CC2)cc1 [DRGG001971a]	< 4.35
O=C(NCC1CCN(c2ccc(Cl)cc2)C1)c1ccc(C2CCCOC2)cc1 (stereo not shown) [DRGG001987a]	< 4.35
O=C(NCC1CCN(c2ccc(Cl)cc2)C1)c1cccc(C2(O)COC2)c1 (stereo not shown) [DRGG001996a]	< 4.35
O=C(NC1(c2ccc(Cl)cc2)COC1)c1cncc2cnccc12 [DRGG001948a]	< 4.35
O=C(CNC(=O)c1ccc(O)cc1)NCC1CCN(c2ccc(Cl)cc2)C1 (stereo not shown) [DRGG001951a]	< 4.35
O=C(NC1(c2ccc(Cl)cc2)COC1)C1CCN(c2ccccc2)C1 (stereo not shown) [DRGG001991a]	< 4.35
O=C(NC1CCN(c2ccc(Cl)cc2)C1)c1ccc(N2CCC(O)C2)cc1 (stereo not shown) [DRGG001963a]	< 4.35
O=C(NC1CCN(c2ccc(Cl)cc2)C1)c1ccc2c(c1)CC2 (stereo not shown) [DRGG001973a]	< 4.35
C=CC(=O)N1CCCc2c(C(=O)NC(c3ccc(F)cc3)C3CCCCC3)cccc21 (stereo not shown) [DRTR002366a]	< 4.35
O=C(NCC1CCN(c2ccc(F)cc2)C1)C1(c2ccc(Cl)cc2)CCOCC1 (stereo not shown) [DRGG001995a]	< 4.35
O=C(NCC1CCN(c2ccc(Cl)cc2)C1)c1ccc(C2(O)COC2)cc1 (stereo not shown) [DRGG001959a]	< 4.35
CC1CCN(c2ccc(C(=O)NC3(Cc4cccc(F)c4)CC3)cc2)C1 (stereo not shown) [DRGG002009a]	< 4.35
O=C(Nc1cccc2c1CN(C1CC1)C2)c1ccc(N2CCC(O)C2)cc1 (stereo not shown) [DRGG001985a]	< 4.35
O=C(NCC1CCN(c2ccc(Cl)cc2)C1)N1CC(O)(c2ccc(F)cc2)C1 (stereo not shown) [DRGG002007a]	< 4.35
O=C1CCC(c2ccc(C(=O)NC3CCN(c4ccc(Cl)cc4)C3)cc2)N1 (stereo not shown) [DRGG001984a]	< 4.35
O=C1Cc2c(cccc2C(=O)NC2(c3ccc(Cl)cc3)COC2)N1 [DRGG001947a]	< 4.35
O=C(NC1(c2ccc(Cl)cc2)COC1)c1cccc(N2CCCC2)c1 [DRGG001982a]	< 4.35

Results, then the molecule that gave them:

pKd	SMILES
< 4.35	CC1CCN(c2ccc(C(=O)NC3(C)Cc4ccccc4C3)cc2)C1 (stereo not shown) [DRGG001937a]
< 4.35	O=C(CNC(=O)c1ccc(F)cc1)NC1CCN(c2ccc(Cl)cc2)C1 (stereo not shown) [DRGG001962a]
< 4.35	O=C(NCC1CCN(c2ccc(F)cc2)C1)NCC1(c2ccc(Cl)cc2)CC1 (stereo not shown) [DRGG002008a]
< 4.35	O=C(c1ccc(N2CCC(O)C2)cc1)N1Cc2ccc(Cl)cc2C1 (stereo not shown) [DRGG001955a]
< 4.35	O=C(NC1CC2(CCC2)Oc2ccccc21)c1ccc(N2CCC(O)C2)cc1 (stereo not shown) [DRGG001975a]
< 4.35	Cc1nc2sccn2c1C(=O)NC1(c2ccc(Cl)cc2)COC1 [DRGG001989a]
< 4.35	O=C(NC1CC1)c1ccc(C(=O)NC2CCN(c3ccc(Cl)cc3)C2)cc1 (stereo not shown) [DRGG002012a]
< 4.35	O=C(N[C@@H]1CCN(C2CC2)[C@H]1c1ccccc1)c1ccc(N2CCC(O)C2)cc1 (stereo partly shown) [DRGG001958a]
< 4.35	O=C(N[C@@H]1CC2(CCC2)Oc2ccc(F)cc21)c1ccc(N2CCC(O)C2)cc1 (stereo partly shown) [DRGG001964a]
< 4.35	O=C(NC1(c2ccc(Cl)cc2)COC1)c1ccc2c(c1)NC(=O)C1CCCN21 (stereo not shown) [DRGG002018a]
< 4.35	O=C(NOCc1ccc(Cl)cc1)c1ccc(N2CCC(O)C2)cc1 (stereo not shown) [DRGG002010a]
< 4.35	O=C(NCCc1ccc(Cl)cc1)c1ccc(N2CCC(O)C2)cc1 (stereo not shown) [DRGG001935a]
4.80	NC(=O)C1CCCN(c2ccc(C(=O)NC(c3ccc(Cl)cc3)C3CC3)cc2)C1 (stereo not shown) [DRGG001957a]
< 4.35	O=C(NCC1CCN(Cc2ccccc2)C1)c1ccc(N2CCC(O)C2)cc1 (stereo not shown) [DRGG001968a]
< 4.35	C=CC(=O)Nc1ccc(CC(=O)NC2(c3ccccc3)COC2)cc1 [MRTR046653a]
